This note sets out measurements from PubChem BioAssay AID652219 (Broad Institute, 2013).

Activity calls are given as the source filed them. The rule behind the calls is not given here.

This test relates to V. cholerae SLS353 luxOD47E qrr4-GFP fluorescence. As to the kind of experiment: Quorum LuxO inhibitors, V. cholerae SLS353 luxOD47E qrr4 GFP fluorescence, confirmatory dose response (AID 652219).
For `CCC(C)NC(=O)Cc1ccc(-c2ccccc2)cc1` (stereo not given), the AC50 is > 500 µM (inactive).
Then `CCOc1ccc(Nc2ccc3nonc3c2[N+](=O)[O-])cc1`, with > 500 µM (inactive).
Then `COc1ccc(Cl)cc1NC(=O)COC(=O)c1ccc(C)o1`, with > 500 µM (inactive); and `Cc1ccc2cc3c(NC(=O)c4ccco4)nn(C)c3nc2c1`, with 4 µM.
Consider `COc1ccccc1NC(=O)COC(=O)c1ccc(C)cc1`, for which the AC50 was > 500 µM (inactive).
For the compound `O=C(Cc1ccc(-c2ccccc2)cc1)NC1CCCC1`, the AC50 is > 500 µM (inactive).
Then `O=c1ncn(-c2cccc(Cl)c2)c2ccccc12`, with 250 µM; and `COc1ccccc1NC(=O)COC(=O)c1oc2ccccc2c1C`, with > 500 µM (inactive); and `CCCn1nnnc1NCc1ccc(C(C)C)cc1`, with > 500 µM (inactive).
Then `Cc1ccc(OCCNC(=O)c2cccc(C)c2)cc1`, with 100 µM (inactive); and `COc1ccccc1NC(=O)COC(=O)c1cc2c(s1)CCC2`, with > 500 µM (inactive); and `CCCn1nnnc1NCc1ccc(N(CC)CC)cc1`, with > 500 µM (inactive).
Turning to `CCn1nnnc1NCc1ccc(N2CCCC2)cc1`, the AC50 was > 500 µM (inactive).
Then `O=C(Nc1nnc(-c2ccc3c(c2)OCCO3)o1)C1CCCCC1`, with 2 µM; and `CCCn1nnnc1NCc1ccc(N2CCCC2)cc1`, with > 500 µM (inactive).

For orientation: AC50 means the concentration at which the activity in the assay is half-maximal.
